# Test results taken from patent US12403112B2, “Agent for preventing, ameliorating, or treating periodontal disease” (WAKUNAGA PHARMACEUTICAL CO., LTD., priority 2019, dated 2025).
# Columns and labels:
# Format in all cases: cell-based
# [1] = tested on: LL-37 gene in human gingival epithelial Ca9-22 cells; assay: Effect of promoting expression of LL-37 gene (quantitative real-time PCR); conditions: treatment for 24 hours, absence of HKPG, compared to untreated, FIG. 1
# Method: (§1) Test solutions for evaluating the biological activities were prepared as follows. In evaluating the biological activities, all test solutions were prepared at the time of use. • (a) Approximately 1 mg of SAC and S1PC (cis:trans=15:85) were each precisely weighed and dissolved in 0.6 mL of purified water (10 mM). This solution was used as a stock solution and diluted appropriately to be subjected to the test. • (b) SAMC was dissolved in a culture medium for cell culture (containing 10% bovine serum albumin, […] penicillin, and 100 μg/mL streptomycin) (1 mM). This solution was used as a stock solution and diluted to be subjected to the test. (2) Cells for Evaluation Test
# Test cells (human gingival epithelial Ca9-22 cells) were purchased from the National Institute of Biomedical Innovation, Health and Nutrition. […]
# (§2) Using a reverse transcription kit (PrimeScript RT reagent kit with gDNA Eraser, RR047A, TAKARA), degradation of DNA remaining in total RNA and reverse transcription reaction from RNA to complementary DNA (cDNA) were carried out. Next, cDNA derived from the target gene was amplified by quantitative real-time polymerase chain reaction (PCR) using primers specific for LL-37 or hBD3 gene. The relative expression levels of LL-37 and hBD3 genes were calculated using beta-actin as an internal reference gene.
# [2] = tested on: hBD3 gene in human gingival epithelial Ca9-22 cells; assay: Effect of promoting expression of hBD3 gene (quantitative real-time PCR)
# Method: as §1
# Test cells (human gingival epithelial Ca9-22 cells) were purchased from the National Institute of Biomedical Innovation, Health and Nutrition. Immediately after purchasing, the culturing was initiated (5% CO2, 37° C.) Subculturing was carried out two or three times per week.
# The Ca9-22 cells were prepared to 1×10^5 cells/mL in a 10% serum-containing medium, seeded in a 12-well plate at 1 mL respectively, and cultured for 24-48 hours. Assay was carried out when the percentage of cells in each well reached nearly 100%. In the presence or absence of heat-sterilized Porphyromonas gingivalis (HKPG), a reagent was added and the culturing was continued for 24 hours. After completion of culturing, the culture supernatant was removed and […] was added, followed by treatment at room temperature for 5 minutes. RIPA buffer was collected from each well into tubes and chloroform was added (40 μL/tube), followed by treatment at room temperature for 2-3 minutes. After centrifugation (13,000 g, 5 min, 4° C.), the supernatant was transferred to a new tube and 2-propanol was added thereto (80 μL/tube), followed by treatment at room temperature for 10 minutes. After centrifugation (13,000 g, 10 min, 4° C.), the supernatant was removed, and 75% ethanol was added to the precipitate (200 μL/tube), and further centrifugation (13,000 g, 10 min, 4° C.) was carried out. After centrifugation (13,000 g, 10 min, 4° C.), the supernatant was removed, and the dried precipitate (total RNA) was dissolved in sterile water and cryopreserved at −80° C. until use.
# as §2
# [3] = tested on: ICAM-1 protein in human gingival epithelial Ca9-22 cells; assay: Effect of down-regulating expression of ICAM-1 induced by TNF-α (Western blot); conditions: co-treatment with TNF-α, 24 hours, FIG. 3
# Method: Test solutions for evaluating the biological activities were prepared as follows. In evaluating the biological activities, all test solutions were prepared at the time of use. • (a) Approximately 1 mg of SAC and […] (cis:trans=15:85) were each precisely weighed and dissolved in 0.6 mL of purified water (10 mM). This solution was used as a stock solution and diluted appropriately to be subjected to the test. • (b) SAMC was dissolved in a culture medium for cell culture (containing 10% bovine serum albumin, […] penicillin, and 100 μg/mL streptomycin) (1 mM). This solution was used as a stock solution and diluted to be subjected to the test. (2) Cells for Evaluation Test Test cells (human gingival epithelial Ca9-22 cells) were purchased from the National Institute of Biomedical Innovation, Health and Nutrition. Immediately after purchasing, the culturing was initiated (5% CO2, 37° C.) Subculturing was carried out two or three times per week. […] A portion of the above protein supernatant was collected and the total protein concentration was calculated by BCA method. […] After reaction treatment, the proteins were washed with Tris-buffered saline three times, an HRP substrate was added thereto, and the luminescence intensity was detected by a luminoimage analyzer.
# [4] = tested on: IL-6 release from human gingival epithelial Ca9-22 cells; assay: Effect of reducing release of IL-6 induced by TNF-α (ELISA); conditions: co-treatment with TNF-α, 6 hours, FIGS. 4 and 5
# Method: Test solutions for evaluating the biological activities were prepared as follows. In evaluating the biological activities, all test solutions were prepared at the time of use. • (a) Approximately 1 mg of SAC and […] (cis:trans=15:85) were each precisely weighed and dissolved in 0.6 mL of purified water (10 mM). This solution was used as a stock solution and diluted appropriately to be subjected to the test. • (b) SAMC was dissolved in a culture medium for cell culture (containing 10% bovine serum albumin, […] penicillin, and 100 μg/mL streptomycin) (1 mM). This solution was used as a stock solution and diluted to be subjected to the test. (2) Cells for Evaluation Test Test cells (human gingival epithelial Ca9-22 cells) were purchased from the National Institute of Biomedical Innovation, Health and Nutrition. Immediately after purchasing, the culturing was initiated (5% CO2, 37° C.) Subculturing was carried out two or three times per week. […] IL-6 ELISA Ready-SET-Go! Kit was purchased from eBioscience, Inc. to measure the amount of IL-6 produced. […] A horseradish peroxidase (HRP)-labeled secondary antibody and chromogenic substrate were added thereto and then the absorbance was measured by using a plate reader. […] After completion of culturing, the supernatant was collected and the concentration of IL-6 was measured by ELISA.
# [5] = 300 μM, presence of 10^7/mL HKPG (heat-sterilized Porphyromonas gingivalis), FIG. 2
# [6] = treatment for 24 hours, absence of HKPG
Structure (SMILES),expression level of LL-37 gene [1],"expression level of hBD3 gene [2, 5]","expression level of hBD3 gene [2, 6]",expression of ICAM-1 protein induced by TNF-α [3],amount of released IL-6 induced by TNF-α [4]
"CC=CSC[C@H](N)C(=O)O [S1PC, S-1-propenylcysteine]",significantly increased,significantly increased,no change,concentration-dependently down-regulated,–
"C=CCSC[C@H](N)C(=O)O [SAC, S-allylcysteine]",significantly increased,significantly increased,no change,–,concentration-dependently reduced
"C=CCSSCC(N)C(=O)O (stereo not drawn) [SAMC, S-allylmercaptocysteine]",–,–,–,–,concentration-dependently reduced
